MIC50, MIC90 and MIC range data for three compounds are collected here from patent US5958873A, “Oral formulation for treatment of bacteria-induced diseases of the colon” (University of Cincinnati, priority 1997, dated 1999).

Assay [1] has as its system Bacteroides fragilis. The assay is described as follows: In vitro MIC against clinical isolates of B. fragilis (same agar method). The assay is classed as cell-based. As to conditions: 23 clinical isolates of B. fragilis; calculated geometrically.
The test system of assay [2] is C. difficile. Nature of the assay: In vitro MIC against clinical isolates of C. difficile (Brucella agar with sheep's blood, anaerobic). Format: cell-based, Clostridium difficile.

In brackets after ≈: the same amount, converted by molar mass.

In the case of `CCC[C@@H]1C[C@@H](C(=O)N[C@@H]([C@H]2O[C@H](SC)[C@H](O)[C@@H](O)[C@H]2O)[C@H](C)Cl)N(C)C1` [clindamycin], in assay [1], the MIC50 is listed as 55 μml and the MIC90 is 13 μml.
As to `Cc1ncc([N+](=O)[O-])n1CCO` [metronidazole], the MIC range in assay [2] (60 clinical isolates of C. difficile) is listed as 0.25-4 μml. In assay [1], the MIC50 was 1.4 μml and the MIC90 is reported as 2 μml.
Consider `CN[C@H](CC(C)C)C(=O)N[C@H]1C(=O)N[C@@H](CC(N)=O)C(=O)N[C@H]2C(=O)N[C@H]3C(=O)N[C@H](C(=O)N[C@H](C(=O)O)c4cc(O)cc(O)c4-c4cc3ccc4O)[C@H](O)c3ccc(c(Cl)c3)Oc3cc2cc(c3O[C@@H]2O[C@H](CO)[C@@H](O)[C@H](O)[C@H]2O[C@H]2C[C@](C)(N)[C@H](O)[C@H](C)O2)Oc2ccc(cc2Cl)[C@H]1O` [vancomycin], for which, in assay [2], the MIC50 is 0.38 µg/mL (≈ 0.262 µM) and the MIC90 stood at 0.8 µg/mL (≈ 0.552 µM). In addition, in assay [2] (in µg/mL), the MIC range was 0.13-2.
